{"source": "patent US9931316B2", "about": "(priority 2015, dated 2018)", "key": {"Polio": {"system": "Polio", "format": "cell-based, poliovirus", "details": "Polio primary, SI50 = CC50/EC50"}, "[1]": {"system": "Mycobacterium tuberculosis", "details": "Hwang et al., J. Nat. Prod. 76: 1916-1922 (2013); cited from earlier work"}, "Ebola": {"system": "Ebola", "format": "cell-based, Ebola virus", "details": "SI50 = CC50/EC50"}, "[2]": {"system": "Flu A (H5N1) Vietnam/1203/2004H", "test": "microbe, parasite or virus in culture", "format": "cell-based, Influenza A"}, "[3]": {"system": "Flu A (H3N2) Wisconsin/67/2005", "test": "microbe, parasite or virus in culture", "format": "cell-based, Influenza A", "details": "for Cntrl SI: Ribavirin control, Flu A (H3N2)"}, "Flu B Shanghai/361/02": {"system": "Flu B Shanghai/361/02", "test": "Influenza B antiviral assay in MDCK cells (BioShield, NIH contract labs)", "format": "cell-based", "details": "for EC50: Influenza B virus, read-out: Cntrl EC50; for EC50 / Cntrl SI: Ribavirin control, Flu B", "description": "Following the Project BioShield Act of 2004, Fungi Perfecti, LLC submitted over 200 hot water fruitbody and aqueous ethanolic extracts of the in vitro grown mycelia of mushroom species and strains within to the BioShield BioDefense Program administered by the U.S. Army Medical Research Institute of Infectious Diseases ([…]) and the National Institutes of Health (NIH). Submitted samples were screened for antiviral activity coordinated through the Southern Research Institute (SRI). From the more than 200 samples the inventor provided to BioShield, 2,392 antiviral assays were performed on behalf of the inventor; 1,042 of which were influenza tests.\nThe protocols for determining antiviral activity are fully described by the National Institutes of Allergy and Infectious Diseases (NIAID) by Greenstone et al., NIAID resources for developing new therapies for severe viral infections, Antiviral Res., Volume 78, Issue 1, April 2008, Pages 51-59, hereby incorporated by reference in its entirety. The influenza bioassays were conducted according to Sidwell, R W and Smee, D F, In vitro and in vivo assay systems for study of influenza virus inhibitors, Antiviral Res., October 2000, 48(1):1-16., hereby incorporated by reference in its entirety."}, "in vitro": {"test": "in vitro", "details": "dog"}, "Human papillomavirus 11": {"system": "Human papillomavirus 11", "format": "cell-based, human papillomavirus (HPV)"}, "Norovirus": {"system": "Norovirus", "format": "cell-based, norovirus (Norwalk)", "parameters": "unit not given beside the values"}, "[4]": {"details": "oral ingestion; cited from earlier work"}, "HSV-1": {"system": "HSV-1", "test": "microbe, parasite or virus in culture", "format": "cell-based, Herpes Simplex", "details": "Human alphaherpesvirus 1, HFF, read-out: Cntrl EC50"}, "[5]": {"system": "laccase activity of Trametes sp. 1-62", "details": "Terron et al. 2004; cited from earlier work"}, "[6]": {"details": "within the human body; cited from earlier work"}}, "note": "Where two headings read alike, the source gives them in different places."}
{"compound": "O=c1cc(-c2ccccc2)oc2cc(O)cc(O)c12", "note": "[Chrysin]", "values": [{"measurement": "SI50", "setting": "Polio", "result": "Polio primary: SI50 > 15 (Control pirodavir SI50 > 22)"}, {"measurement": "SI50", "setting": "Polio; listed as chrysin", "result": "> 15"}]}
{"compound": "CCOC(=O)c1c(-c2ccccc2)c2ccc(Cl)cc2oc1=O", "note": "[Ethyl 7-chloro-2-oxo-4-phenyl-2H-chromen-3-carboxylate]", "values": [{"measurement": "activity against Mycobacterium tuberculosis", "setting": "[1]", "result": "active"}]}
{"compound": "CC(=O)/C=C(O)\\C=C\\c1ccc(O)c(O)c1", "note": "[Hispolon]", "values": [{"measurement": "SI50", "setting": "Ebola", "result": "> 5.3"}, {"measurement": "activity against Mycobacterium tuberculosis", "setting": "[1]", "result": "active"}]}
{"compound": "NC(=O)c1ncn([C@@H]2O[C@H](CO)[C@@H](O)[C@H]2O)n1", "note": "[Ribavirin]", "values": [{"measurement": "EC50", "setting": "[2]; Influenza A virus, H5N1, MDCK, read-out: Cntrl EC50, Ribavirin control, Neutral Red", "result": 12, "unit": "µg/mL"}, {"measurement": "Cntrl SI", "setting": "[2]; Ribavirin control, Neutral Red", "result": ">27"}, {"measurement": "EC50", "setting": "[3]; Influenza A virus, H3N2, MDCK, read-out: Cntrl EC50", "result": 2, "unit": "µg/mL"}, {"measurement": "Cntrl SI", "setting": "[3]; Neutral Red", "result": ">160"}, {"measurement": "Cntrl SI", "setting": "[3]; Visual", "result": ">170"}, {"measurement": "EC50", "setting": "Flu B Shanghai/361/02; MDCK, Neutral Red", "result": 7.1, "unit": "µg/mL"}, {"measurement": "EC50", "setting": "Flu B Shanghai/361/02; MDCK, Visual-CONF", "result": 1.7, "unit": "µg/mL"}, {"measurement": "EC50", "setting": "Flu B Shanghai/361/02; MDCK, Visual", "result": 1.7, "unit": "µg/mL"}, {"measurement": "EC90", "setting": "Flu B Shanghai/361/02; MDCK, read-out: Cntrl EC90", "result": 37.7, "unit": "µg/mL"}, {"measurement": "Cntrl SI", "setting": "Flu B Shanghai/361/02; Neutral Red", "result": ">45"}, {"measurement": "Cntrl SI", "setting": "Flu B Shanghai/361/02; Visual", "result": ">190"}, {"measurement": "Cntrl SI", "setting": "Flu B Shanghai/361/02; Visual-CONF", "result": ">190"}, {"measurement": "IC50", "setting": "in vitro", "result": "> 320", "unit": "µg/mL"}]}
{"compound": "C[C@@H]1O[C@@H](OC[C@H]2O[C@@H](Oc3c(-c4ccc(O)c(O)c4)oc4cc(O)cc(O)c4c3=O)[C@H](O)[C@@H](O)[C@@H]2O)[C@H](O)[C@H](O)[C@H]1O.O", "note": "[Rutin hydrate]", "values": [{"measurement": "SI90", "setting": "Human papillomavirus 11", "result": "Human papillomavirus 11 primary: SI50 > 109 (Control cidofovir SI50 = 12), SI90 = 5 (Control cidofovir SI90 = 1)"}]}
{"compound": "COc1cc(C(=O)O)ccc1O", "note": "[Vanillic acid]", "values": [{"measurement": "SI50", "setting": "Norovirus", "result": 1}, {"measurement": "SI90", "setting": "Norovirus", "result": 1}, {"measurement": "time remaining in the blood stream post-digestion", "setting": "[4]", "result": "more than 11 hours"}]}
{"compound": "Nc1nc2c(ncn2COCCO)c(=O)[nH]1", "note": "[acyclovir]", "values": [{"measurement": "EC50", "setting": "HSV-1", "result": 0.3, "unit": "µg/mL"}]}
{"compound": "NC(=O)c1nc(F)c[nH]c1=O", "note": "[favipiravir]", "values": [{"measurement": "SI50", "setting": "Ebola", "result": "> 10"}]}
{"compound": "COc1ccccc1O", "note": "[guaiacol]", "values": [{"measurement": "increase in laccase activity", "setting": "[5]", "result": 73, "unit": "fold"}]}
{"compound": "O=C(O)/C=C/c1ccc(O)cc1", "note": "[p-coumaric acid]", "values": [{"measurement": "increase in laccase activity", "setting": "[5]", "result": 273, "unit": "fold"}]}
{"compound": "COc1cc(C=O)ccc1O", "note": "[vanillin]", "values": [{"measurement": "share of vanillin metabolized into vanillic acid", "setting": "[6]", "result": "up to 95%"}]}
